From patent US9487510B2, “Substituted heterocyclic acetamides as kappa opioid receptor (KOR) agonists” (Dr. Reddy's Laboratories Ltd., priority 2012, dated 2016) come the findings set out here.

A value given as a limit tells only on which side of the number the result lay.

Chain of human KOR receptor (P41145 whole entry): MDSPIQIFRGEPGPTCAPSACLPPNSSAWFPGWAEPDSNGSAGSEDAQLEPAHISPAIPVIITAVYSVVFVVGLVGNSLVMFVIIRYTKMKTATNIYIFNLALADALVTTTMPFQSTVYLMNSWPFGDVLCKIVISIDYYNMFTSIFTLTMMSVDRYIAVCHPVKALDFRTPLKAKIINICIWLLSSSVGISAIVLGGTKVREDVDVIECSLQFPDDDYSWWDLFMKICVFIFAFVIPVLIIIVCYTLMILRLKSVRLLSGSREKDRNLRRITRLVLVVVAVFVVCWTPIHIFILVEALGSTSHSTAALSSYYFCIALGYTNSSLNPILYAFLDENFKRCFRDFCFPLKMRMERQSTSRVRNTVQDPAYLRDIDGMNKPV

The assay addresses human KOR receptor (Homo sapiens, UniProt P41145). Description: IP-One HTRF assay, potency of KOR agonists, dose-response in transiently transfected COS-7 cells. It is filed as cell-based.
Usually EC50 stands for the midpoint of the concentration-response curve. `CCC#Cc1cccc([C@@H](CN2CC[C@H](O)C2)N(C)C(=O)Cc2ccc3ncc(=O)[nH]c3c2)c1` [Example 206, N-((S)-1-(3-(but-1-yn-1-yl)phenyl)-2-((S)-3-hydroxypyrrolidin-1-yl)ethyl)-N-methyl-2-(3-oxo-3,4-dihydroquinoxalin-6-yl)acetamide] displayed an EC50 of at most 50 nM.

As for `CN(C)C(=O)c1cccc([C@@H](CN2CC[C@H](O)C2)N(C)C(=O)Cc2ccc3c(c2)NC(=O)C3)c1` [Example 207, 3-((S)-2-((S)-3-hydroxypyrrolidin-1-yl)-1-(N-methyl-2-(2-oxoindolin-6-yl)acetamido)ethyl)-N,N-dimethylbenzamide], the 50% effective concentration (EC50) was at most 50 nM.

For `CCN(CC)C(=O)c1cccc([C@@H](CN2CC[C@H](O)C2)N(C)C(=O)Cc2ccc3c(c2)NS(=O)(=O)C3)c1` [Example 208, 3-((S)-1-(2-(2,2-dioxido-1,3-dihydrobenzo[c]isothiazol-6-yl)-N-methylacetamido)-2-((S)-3-hydroxypyrrolidin-1-yl)ethyl)-N,N-diethylbenzamide], the EC50 is at most 50 nM.

The molecule `CCN(CC)C(=O)c1cccc([C@@H](CN2CC[C@H](O)C2)N(C)C(=O)Cc2ccc3ncc(=O)[nH]c3c2)c1` [Example 209, N,N-diethyl-3-((S)-2-((S)-3-hydroxypyrrolidin-1-yl)-1-(N-methyl-2-(3-oxo-3,4-dihydroquinoxalin-6-yl)acetamido)ethyl)benzamide 2,2,2-trifluoroacetate] showed an EC50 of at most 50 nM.

On to `CN(C)C(=O)c1cccc([C@@H](CN2CC[C@H](O)C2)N(C)C(=O)Cc2ccc3c(c2)NS(=O)(=O)C3)c1` [Example 210, 3-((S)-1-(2-(2,2-dioxido-1,3-dihydrobenzo[c]isothiazol-6-yl)-N-methylacetamido)-2-((S)-3-hydroxypyrrolidin-1-yl)ethyl)-N,N-dimethylbenzamide], for which the EC50 was at most 50 nM.

Take `CN(C)C(=O)c1cccc([C@@H](CN2CC[C@H](O)C2)N(C)C(=O)Cc2ccc3ncc(=O)[nH]c3c2)c1` [Example 211, 3-((S)-2-((S)-3-hydroxypyrrolidin-1-yl)-1-(N-methyl-2-(3-oxo-3,4-dihydroquinoxalin-6-yl)acetamido)ethyl)-N,N-dimethylbenzamide]: the EC50 was at most 50 nM.

`CN(C(=O)Cc1ccc2c(c1)NC(=O)CS2(=O)=O)[C@H](CN1CC[C@H](O)C1)c1cccc(-c2ncon2)c1` [Example 212, N-((S)-1-(3-(1,2,4-oxadiazol-3-yl)phenyl)-2-((S)-3-hydroxypyrrolidin-1-yl)ethyl)-2-(1,1-dioxido-3-oxo-3,4-dihydro-2H-benzo[b][1,4]thiazin-6-yl)-N-methylacetamide2,2,2-trifluoroacetate] returned an EC50 of at most 50 nM.

The molecule `CN(C(=O)Cc1ccc2c(c1)NC(=O)C2)[C@H](CN1CC[C@H](O)C1)c1cccc(-c2nccn2C)c1` [Example 213, N-((S)-2-((S)-3-hydroxypyrrolidin-1-yl)-1-(3-(1-methyl-1H-imidazol-2-yl)phenyl)ethyl)-N-methyl-2-(2-oxoindolin-6-yl)acetamide] came in with a half-maximal effective concentration (EC50) of at most 50 nM.

Take `CCc1nc(-c2cccc([C@@H](CN3CC[C@H](O)C3)N(C)C(=O)Cc3ccc4c(c3)NC(=O)C4)c2)no1` [Example 214, N-((S)-1-(3-(5-ethyl-1,2,4-oxadiazol-3-yl)phenyl)-2-((S)-3-hydroxypyrrolidin-1-yl)ethyl)-N-methyl-2-(2-oxoindolin-6-yl)acetamide]: the 50% effective concentration (EC50) was at most 50 nM.

In turn, `Cc1cnc(-c2cccc([C@@H](CN3CC[C@H](O)C3)N(C)C(=O)Cc3ccc4c(c3)NC(=O)C4)c2)s1` [Example 215, N-((S)-2-((S)-3-hydroxypyrrolidin-1-yl)-1-(3-(5-methylthiazol-2-yl)phenyl)ethyl)-N-methyl-2-(2-oxoindolin-6-yl)acetamide] gave an EC50 of at most 50 nM.

With `CN(C(=O)Cc1ccc2c(c1)NC(=O)C2)[C@H](CN1CC[C@H](O)C1)c1cccc(-c2cncs2)c1` [Example 216, N-((S)-2-((S)-3-hydroxypyrrolidin-1-yl)-1-(3-(thiazol-5-yl)phenyl)ethyl)-N-methyl-2-(2-oxoindolin-6-yl)acetamide], the EC50 is at most 50 nM.
